Values joined by “and” are separate entries in the source; they are usually repeats but may differ in a detail not shown here. Equal entries are not always repeated. Toxic doses and inconclusive results are not listed. The calls were made as follows: active = survival T/C of 150% or more; inactive = T/C below 125% in these data.
Tested on: CD2F1 mice, L1210 leukemia ip, survival T/C
Experiment: NCI In Vivo Anticancer Drug Screen. Data for tumor model L1210 Leukemia (intraperitoneal) in CD2F1 (CDF1) mice
Details: higher = longer survival
Method in brief: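 Read-out first: treated-group measurement over vehicle-control measurement, expressed as a ratio. Animals bore a transplanted tumor line and were dosed with compound or vehicle.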

[1] = endpoint: mean survival time, dose: 50.0 mg/kg/injection, schedule: Q01DX009 (ip), vehicle: saline with Tween-80
[2] = endpoint: mean survival time, dose: 100.0 mg/kg/injection, schedule: Q01DX009 (ip), vehicle: saline with Tween-80
[3] = endpoint: mean survival time, dose: 200.0 mg/kg/injection, schedule: Q01DX009 (ip), vehicle: saline with Tween-80
[4] = endpoint: mean survival time, dose: 100.0 mg/kg/injection, schedule: Q04DX002 (ip), vehicle: saline with Tween-80
[5] = endpoint: mean survival time, dose: 200.0 mg/kg/injection, schedule: Q04DX002 (ip), vehicle: saline with Tween-80
[6] = endpoint: mean survival time, dose: 400.0 mg/kg/injection, schedule: Q04DX002 (ip), vehicle: saline with Tween-80
[7] = endpoint: mean survival time, dose: 3.12 mg/kg/injection, schedule: Q01DX009 (ip), vehicle: Klucel (hydroxypropylcellulose) (HPC)
[8] = endpoint: mean survival time, dose: 6.25 mg/kg/injection, schedule: Q01DX009 (ip), vehicle: Klucel (hydroxypropylcellulose) (HPC)
[9] = endpoint: mean survival time, dose: 12.5 mg/kg/injection, schedule: Q01DX009 (ip), vehicle: Klucel (hydroxypropylcellulose) (HPC)
[10] = endpoint: mean survival time, dose: 25.0 mg/kg/injection, schedule: Q01DX009 (ip), vehicle: Klucel (hydroxypropylcellulose) (HPC)
[11] = endpoint: mean survival time, dose: 50.0 mg/kg/injection, schedule: Q01DX009 (ip), vehicle: Klucel (hydroxypropylcellulose) (HPC)
[12] = endpoint: mean survival time, dose: 100.0 mg/kg/injection, schedule: Q01DX009 (ip), vehicle: Klucel (hydroxypropylcellulose) (HPC)
[13] = endpoint: mean survival time, dose: 100.0 mg/kg/injection, schedule: Q04DX003 (ip), vehicle: saline with Tween-80
[14] = endpoint: mean survival time, dose: 400.0 mg/kg/injection, schedule: Q04DX003 (ip), vehicle: saline with Tween-80
[15] = endpoint: mean survival time, dose: 200.0 mg/kg/injection, schedule: Q04DX003 (ip), vehicle: saline with Tween-80

Measured: T/C

CC/C(=C\C=C\N(C)C)C(=O)OC
inactive: [1] 100 % of control | [2] 100 % of control | [3] 105 % of control

N#CC(=C=[N-])[n+]1ccccc1
inactive: endpoint: mean survival time, dose: 12.5 mg/kg/injection, schedule: Q04DX003 (ip), vehicle: Klucel (hydroxypropylcellulose) (HPC) 98 % of control | endpoint: mean survival time, dose: 25.0 mg/kg/injection, schedule: Q04DX003 (ip), vehicle: Klucel (hydroxypropylcellulose) (HPC) 100 % of control

O=C(COc1ccc(Cl)cc1Cl)Nc1ccccc1
inactive: [4] 91 % of control | [5] 95 % of control | [6] 98 % of control

CC(C)CC(=O)NC(C(=O)NC(C(=O)NC(CC(C)C)C(O)CC(=O)NC(C)C(=O)NC(CC(C)C)C(O)CC(=O)O)C(C)C)C(C)C (stereo not drawn)
inactive: [7] 96 % of control | [8] 100 % of control | [9] 96 % of control | [10] 100 % of control | [11] 94 % of control | [12] 97 % of control

O=C1OC(/C=C/c2ccccc2)=NC/1=C\c1ccccc1Cl
inactive: [4] 103 % of control | [5] 103 % of control | [6] 91 % of control

O=C(O)C1C2c3ccccc3C(C1C(=O)O)[n+]1ccccc12 (stereo not drawn)
inactive: endpoint: mean survival time, dose: 100.0 mg/kg/injection, schedule: Q01DX001 (ip), vehicle: saline 96 % of control | endpoint: mean survival time, dose: 200.0 mg/kg/injection, schedule: Q01DX001 (ip), vehicle: saline 102 % of control | endpoint: mean survival time, dose: 400.0 mg/kg/injection, schedule: Q01DX001 (ip), vehicle: saline 93 % of control

Cc1ccc(S(=O)(=O)N/N=C/C(Br)=C(/Br)C(=O)O)cc1
inactive: [7] 104 % of control | [8] 112 % of control | [9] 113 % of control | [10] 115 % of control and 105 % of control | [11] 113 % of control and 102 % of control | [12] 120 % of control and 108 % of control | endpoint: mean survival time, dose: 200.0 mg/kg/injection, schedule: Q01DX009 (ip), vehicle: Klucel (hydroxypropylcellulose) (HPC) 104 % of control

COc1cc2cc3c4ccc(OC)c(OC)c4cc[n+]3c(C)c2cc1OC (tested in a mixture with another compound)
inactive: endpoint: mean survival time, dose: 6.25 mg/kg/injection, schedule: Q01DX009 (ip), vehicle: other 108 % of control | endpoint: mean survival time, dose: 12.5 mg/kg/injection, schedule: Q01DX009 (ip), vehicle: other 106 % of control | endpoint: mean survival time, dose: 25.0 mg/kg/injection, schedule: Q01DX009 (ip), vehicle: other 116 % of control | endpoint: mean survival time, dose: 50.0 mg/kg/injection, schedule: Q01DX009 (ip), vehicle: other 97 % of control

O=C1C=CC(=NCl)C=C1
inactive: endpoint: mean survival time, dose: 2.5 mg/kg/injection, schedule: Q04DX003 (ip), vehicle: saline with Tween-80 100 % of control | endpoint: mean survival time, dose: 5.0 mg/kg/injection, schedule: Q04DX003 (ip), vehicle: saline with Tween-80 110 % of control

O=c1n(-c2ccccc2)c(=O)n2n1C1C=CC2C2CC2/C=C\1 (stereo not drawn)
inactive: endpoint: median survival time, dose: 50.0 mg/kg/injection, schedule: Q04DX002 (ip), vehicle: saline with Tween-80 112 % of control | endpoint: median survival time, dose: 100.0 mg/kg/injection, schedule: Q04DX002 (ip), vehicle: saline with Tween-80 112 % of control | endpoint: median survival time, dose: 200.0 mg/kg/injection, schedule: Q04DX002 (ip), vehicle: saline with Tween-80 87 % of control

NC(=S=O)C(N)=S=O
inactive: endpoint: median survival time, dose: 50.0 mg/kg/injection, schedule: Q01DX005 (ip), vehicle: saline with Tween-80 103 % of control | endpoint: median survival time, dose: 100.0 mg/kg/injection, schedule: Q01DX005 (ip), vehicle: saline with Tween-80 100 % of control | endpoint: median survival time, dose: 200.0 mg/kg/injection, schedule: Q01DX005 (ip), vehicle: saline with Tween-80 111 % of control | endpoint: median survival time, dose: 400.0 mg/kg/injection, schedule: Q01DX005 (ip), vehicle: saline with Tween-80 107 % of control

NC(CSSc1ccccc1)=NC1CCCCC1
inactive: endpoint: mean survival time, dose: 12.5 mg/kg/injection, schedule: Q01DX001 (ip), vehicle: Klucel (hydroxypropylcellulose) (HPC) 97 % of control | endpoint: mean survival time, dose: 25.0 mg/kg/injection, schedule: Q01DX001 (ip), vehicle: Klucel (hydroxypropylcellulose) (HPC) 92 % of control | endpoint: mean survival time, dose: 50.0 mg/kg/injection, schedule: Q01DX001 (ip), vehicle: Klucel (hydroxypropylcellulose) (HPC) 97 % of control

[I][Pt+2][I].[NH-]c1ccc(S(=O)(=O)Nc2ccccn2)cc1.[NH-]c1ccc(S(=O)(=O)Nc2ccccn2)cc1
inactive: endpoint: mean survival time, dose: 20.31 mg/kg/injection, schedule: Q04DX003 (ip), vehicle: saline with Tween-80 105 % of control | endpoint: mean survival time, dose: 40.63 mg/kg/injection, schedule: Q04DX003 (ip), vehicle: saline with Tween-80 105 % of control | endpoint: mean survival time, dose: 81.25 mg/kg/injection, schedule: Q04DX003 (ip), vehicle: saline with Tween-80 90 % of control | endpoint: mean survival time, dose: 162.5 mg/kg/injection, schedule: Q04DX003 (ip), vehicle: saline with Tween-80 94 % of control | endpoint: mean survival time, dose: 325.0 mg/kg/injection, schedule: Q04DX003 (ip), vehicle: saline with Tween-80 102 % of control

O=C(O)Cc1ccc(O)c(O)c1.[Pt].c1ccc([PH+](c2ccccc2)c2ccccc2)cc1.c1ccc([PH+](c2ccccc2)c2ccccc2)cc1
inactive: endpoint: median survival time, dose: 10.0 mg/kg/injection, schedule: Q04DX003 (ip), vehicle: saline with Tween-80 103 % of control | endpoint: median survival time, dose: 20.0 mg/kg/injection, schedule: Q04DX003 (ip), vehicle: saline with Tween-80 95 % of control | endpoint: median survival time, dose: 40.0 mg/kg/injection, schedule: Q04DX003 (ip), vehicle: saline with Tween-80 101 % of control | endpoint: median survival time, dose: 50.0 mg/kg/injection, schedule: Q04DX003 (ip), vehicle: saline with Tween-80 94 % of control | endpoint: median survival time, dose: 80.0 mg/kg/injection, schedule: Q04DX003 (ip), vehicle: saline with Tween-80 94 % of control | endpoint: median survival time, dose: 100.0 mg/kg/injection, schedule: Q04DX003 (ip), vehicle: saline with Tween-80 94 % of control | endpoint: median survival time, dose: 200.0 mg/kg/injection, schedule: Q04DX003 (ip), vehicle: saline with Tween-80 97 % of control | endpoint: median survival time, dose: 400.0 mg/kg/injection, schedule: Q04DX003 (ip), vehicle: saline with Tween-80 89 % of control

CCC(/C=C/C(C)C1CCC2C3CCC45CC4CCC5(C)C3CCC12C)C(C)C (stereo not drawn)
inactive: [13] 97 % of control | [14] 87 % of control

COc1ccc2c(c1)CCCC2=O
inactive: [2] 102 % of control | [13] 90 % of control | [3] 94 % of control | [15] 93 % of control | [14] 98 % of control

CCN(CC)C(=O)c1ccc[n+](CC(=O)Nc2ccccc2)c1
inactive: endpoint: mean survival time, dose: 25.0 mg/kg/injection, schedule: Q01DX009 (ip), vehicle: saline 108 % of control | endpoint: mean survival time, dose: 50.0 mg/kg/injection, schedule: Q01DX009 (ip), vehicle: saline 105 % of control | endpoint: mean survival time, dose: 100.0 mg/kg/injection, schedule: Q01DX009 (ip), vehicle: saline 97 % of control | endpoint: mean survival time, dose: 100.0 mg/kg/injection, schedule: Q04DX003 (ip), vehicle: saline 104 % of control

CC1(c2ccccc2)CCc2ccccc21 (stereo not drawn)
inactive: [2] 97 % of control | [3] 95 % of control | endpoint: mean survival time, dose: 400.0 mg/kg/injection, schedule: Q01DX009 (ip), vehicle: saline with Tween-80 95 % of control

CC(C)=CCC/C(C)=C/CNCCc1c[nH]c2ccccc12
inactive: endpoint: mean survival time, dose: 5.0 mg/kg/injection, schedule: Q01DX009 (ip), vehicle: saline with Tween-80 102 % of control | endpoint: mean survival time, dose: 10.0 mg/kg/injection, schedule: Q01DX009 (ip), vehicle: saline with Tween-80 98 % of control | endpoint: mean survival time, dose: 20.0 mg/kg/injection, schedule: Q01DX009 (ip), vehicle: saline with Tween-80 100 % of control

CCc1c(Br)c(CC)c(CC)c(CC)c1CC
inactive: [13] 98 % of control | [15] 98 % of control | [14] 97 % of control

Clc1ccc(Nc2ccccc2)cc1
inactive: endpoint: mean survival time, dose: 100.0 mg/kg/injection, schedule: Q01DX001 (ip), vehicle: other 90 % of control | endpoint: mean survival time, dose: 200.0 mg/kg/injection, schedule: Q01DX001 (ip), vehicle: other 90 % of control | endpoint: mean survival time, dose: 400.0 mg/kg/injection, schedule: Q01DX001 (ip), vehicle: other 90 % of control

O=C1CC[C@@H]2CCCC[C@@H]2C1
inactive: endpoint: mean survival time, dose: 12.5 mg/kg/injection, schedule: Q01DX009 (ip), vehicle: saline with Tween-80 96 % of control | endpoint: mean survival time, dose: 25.0 mg/kg/injection, schedule: Q01DX009 (ip), vehicle: saline with Tween-80 92 % of control | [1] 98 % of control | endpoint: mean survival time, dose: 50.0 mg/kg/injection, schedule: Q04DX003 (ip), vehicle: saline with Tween-80 98 % of control

Source: PubChem BioAssay AID256 (DTP/NCI, 2004)
